Assay [1] has as its system RGC-5 (rat ganglion cell). The assay can be described thus: Retinal nerve protection under oxygen-glucose deprivation (OGD), LDH assay. Type of assay: cell-based. The following applies: RGC-5, OGD 15 hours, compound 20 μM, DMSO control = 100%. Here is the method: The following experiment was performed to evaluate the protective effect of the compounds of examples of the invention on the retinal nerve under oxygen-glucose deprivation condition.
The retinal ganglion cell line RGC-5 (rat ganglion cell) was cultured in DMEM (Dulbecco's modified Eagle's medium) supplemented with 10% FBS (fetal bovine serum) and 1% penicillin/streptomycin. The cells were distributed in a 96-well plate at the density of 8×10^3 cells/well, followed by culture in a 37° C., CO2 incubator for 12 hours. The cells were washed with PBS once and the medium was replaced with glucose free DMEM. The cells were treated with either DMSO (0.1%) alone (control) or with the compounds of examples (20 μM) shown in Table 3, followed by culture in an anaerobic incubator (10% H2, 5% CO2, 85% N2, 37° C., chamber (ThermoForma, USA)) for 15 hours to induce cell death.
The level of cell death was measured by LDH (lactate dehydrogenase, Roche) assay. The LDH assay is a method for measuring the activity of LDH released from the damaged cells into the culture medium. NAD^+ was reduced to NADH and H^+ by LDH, and the bond of tetrazolium salt INT ring was cleaved by diaphorase to form formazan. Absorbance of the formazan was measured at 490 nm by using Victor 3 (PerkinElmer). The absorbance reflects the amount of dead cells.
The level of the control LDH under oxygen-glucose deprivation condition was regarded as 100%, and the level of LDH in the cell group cultured in normal medium (10% FBS, DMEM) for the same time was regarded as 0%. Based on that, the levels of LDH of the cell groups treated with the compounds of the invention under oxygen-glucose deprivation condition were converted into the relative ratio of cell death. The compounds of examples of the invention were treated to wells, each compound for three wells, and then each experiment was performed in triplicate.

Assay [2] addresses RIPK1 (receptor-interacting serine/threonine-protein kinase 1) (Homo sapiens (Human), UniProt Q13546). The assay can be described thus: RIPK1 inhibitory activity, autophosphorylation of immuno-precipitated RIPK1 with [32P]γ-ATP. The assay is classed as biochemical. The following applies: for inhibition at 100 µM: Table 2, 100 μM; for activity at 100 µM: compound 100 μM, remaining RIPK1 phosphorylation. As for the experimental part: The following experiment was performed to evaluate RIPK1 (receptor-interacting serine/threonine-protein kinase 1) inhibitory activity of the compounds of examples of the invention.
RIPK1 enzyme immuno-precipitated in HEK293 (Human Embryonic Kidney 293) cell lysate was used as kinase. The experiment was performed according to the method described in Cell. 12; 137(6):1112-23(2009). RIPK1 protein was over-expressed in HEK293 cell line, to which lysis buffer (50 mM Tris-Cl [pH 8.0], 150 mM NaCl, 1 mM EDTA, 1% NP-40, 0.4 mM phenylmethylsulfonyl fluoride (PMSF)) was added for cell lysis. Centrifugation was performed at 13,000 rpm for 10 minutes to separate the supernatant. RIPK1 monoclonal antibody (610459, BD Bioscience) and A/G agarose beads (sc-2003, Santa Cruz Biotechnology) were added thereto, followed by immuno-precipitation in a 4° C. rotator for 12 hours.
The immune complex was washed with lysis buffer twice and then washed with kinase assay buffer (20 mM HEPES [pH7.6], 2 mM DTT, 1 mM NaF, 1 mM Na3Vo4, 20 mM β-glycerophosphate, 20 mM PNPP, 20 mM MgCl2, 20 mM MnCl2, 1 mM Benzamidie, and 1 mM EDTA) lastly. Kinase assay buffer and the compound were added to the RIPK1 immuno-precipitate, followed by reaction in a 24° C. constant-temperature water bath for 15 minutes. Additional reaction was induced for 30 minutes at 30° C. after 100 μM of ATP and 10 μCi[^32P] γ-ATP were added thereto. The reaction mixture was washed with kinase assay buffer once, to which protein loading buffer was added, followed by heating at 100° C. for 3 minutes. The reaction mixture was then loaded on 8% SDS-PAGE gel. Radioactive image of the phosphorylated RIPK1 was detected with FLA-7000 (GE healthcare). The image Quant TL program was used for the quantification.

Sequence of RIPK1 (receptor-interacting serine/threonine-protein kinase 1) (Q13546 whole entry, species assumed): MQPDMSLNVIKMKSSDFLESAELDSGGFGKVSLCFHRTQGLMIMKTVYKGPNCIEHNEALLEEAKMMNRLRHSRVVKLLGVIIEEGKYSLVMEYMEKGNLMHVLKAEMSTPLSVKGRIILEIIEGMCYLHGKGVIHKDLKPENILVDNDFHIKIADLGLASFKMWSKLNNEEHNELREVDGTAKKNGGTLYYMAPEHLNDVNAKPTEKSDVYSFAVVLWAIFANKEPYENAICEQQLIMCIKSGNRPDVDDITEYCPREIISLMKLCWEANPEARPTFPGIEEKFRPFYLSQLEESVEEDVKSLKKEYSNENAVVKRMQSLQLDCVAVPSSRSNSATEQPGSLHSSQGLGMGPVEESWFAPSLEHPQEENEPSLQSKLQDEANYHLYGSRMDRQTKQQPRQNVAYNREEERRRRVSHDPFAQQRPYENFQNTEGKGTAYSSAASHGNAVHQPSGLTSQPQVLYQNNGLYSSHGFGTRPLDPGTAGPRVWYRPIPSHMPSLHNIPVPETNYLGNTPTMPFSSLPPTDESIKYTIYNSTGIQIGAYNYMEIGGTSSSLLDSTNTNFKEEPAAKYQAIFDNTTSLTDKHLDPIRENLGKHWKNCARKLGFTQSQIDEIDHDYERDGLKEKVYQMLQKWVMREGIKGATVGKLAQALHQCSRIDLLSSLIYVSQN

The term inhibition denotes how much of the control response was suppressed. Low values mean a weak effect, high ones a strong effect. On to `Nc1cccc(-c2cccc3sc(C(=O)N4CCOCC4)cc23)c1` [Example 42, (4-(3-aminophenyl)benzo[b]thiophene-2-yl)(morpholino)methanone], for which, in assay [1], the “Death of retinal nerve cell (%)” value is listed as 57.2 ± 11.2%. In assay [2], this molecule returned an inhibition at 100 µM not below 50% and an activity at 100 µM of 35.5 ± 3.9%.

`CC(=O)Nc1ccc(-c2cccc3sc(C(=O)N4CCOCC4)cc23)cc1` [Example 10, N-(4-(2-(morpholine-4-carbonyl)benzo[b]thiophene-4-yl)phenyl)acetamide]: the “Death of retinal nerve cell (%)” value in assay [1] amounted to 49.0 ± 7.0%. The molecule also came in with an activity at 100 µM in assay [2] of 62.5 ± 16.8%.

As for `Cl.O=C(c1cc2c(-c3ccc(F)nc3)cccc2s1)N1CCOCC1` [Example 66, (4-(6-fluoropyridine-3-yl)benzo[b]thiophene-2-yl)(morpholino)methanone hydrochloride], the “Death of retinal nerve cell (%)” value in assay [1] is reported as 45.2 ± 10.5%. Also, in assay [2], the activity at 100 µM was found to be 11.5 ± 4.9%.

Regarding `O=C(c1cc2c(NS(=O)(=O)c3ccc(F)cc3)cccc2s1)N1CCOCC1` [Example 70, 4-fluoro-N-(2-(morpholine-4-carbonyl)benzo[b]thiophene-4-yl)benzenesulfonamide], in assay [1], the “Death of retinal nerve cell (%)” value is 48.7 ± 10.3%. The activity at 100 µM in assay [2] is 65 ± 32.5%.

On to `NC(=O)c1ccc(-c2cccc3sc(C(=O)N4CCOCC4)cc23)cc1` [Example 43, 4-(2-(morpholine-4-carbonyl)benzo[b]thiophene-4-yl)benzamide], for which the “Death of retinal nerve cell (%)” value in assay [1] is 62.3 ± 1.7%. The molecule further yielded an activity at 100 µM in assay [2] of 58.5 ± 17.7%.

`O=C(O)c1ccc(-c2cccc3sc(C(=O)N4CCOCC4)cc23)cc1` [Example 33, 4-(2-(morpholine-4-carbonyl)benzo[b]thiophene-4-yl)benzoic acid]: the “Death of retinal nerve cell (%)” value in assay [1] was 51.5 ± 7.0%. Also, in assay [2], the activity at 100 µM amounted to 90 ± 2.8%.

On to `O=C(c1cc2c(-c3cccc(-c4ccccc4)c3)cccc2s1)N1CCOCC1` [Example 41, (4-(biphenyl-3-yl)benzo[b]thiophene-2-yl)(morpholino)methanone], for which the “Death of retinal nerve cell (%)” value in assay [1] is reported as 58.3 ± 6.5%. This molecule also returned an activity at 100 µM in assay [2] of 84.7 ± 6.4%.

Regarding `Cn1c(C#N)ccc1-c1cccc2sc(C(=O)N3CCOCC3)cc12` [Example 72, 1-methyl-5-(2-(morpholine-4-carbonyl)benzo[b]thiophene-4-yl)-1H-pyrrole-2-carbonitrile], the “Death of retinal nerve cell (%)” value in assay [1] is reported as 58.5 ± 16.1%. Moreover, in assay [2], the activity at 100 µM was 7 ± 8.5%.

Consider `Cc1cc(C)c2cc(C(=O)N3CCOCC3)sc2c1` [Example 17, (4,6-dimethylbenzo[b]thiophene-2-yl)(morpholino)methanone], for which the “Death of retinal nerve cell (%)” value in assay [1] worked out at 38.5 ± 5.5%. The molecule also displayed an activity at 100 µM in assay [2] of 62.5 ± 16.8%.

On to `O=C(c1cc2c(-c3ccc(F)cc3)cccc2s1)N1CCC(O)CC1` [Example 48, (4-(4-fluorophenyl)benzo[b]thiophene-2-yl)(4-hydroxypiperidine-1-yl)methanone], for which the “Death of retinal nerve cell (%)” value in assay [1] was found to be 47.7 ± 13.2%. Also, in assay [2], the inhibition at 100 µM was not below 50% and the activity at 100 µM was 25.5 ± 0.7%.

As to `CN1CCN(C(=O)c2cc3c(-c4ccc(F)cc4)cccc3s2)CC1.Cl` [Example 49, (4-(4-fluorophenyl)benzo[b]thiophene-2-yl)(4-methylpiperazine-1-yl)methanone hydrochloride], in assay [1], the “Death of retinal nerve cell (%)” value is given as 43.8 ± 13.7%. In assay [2], this molecule gave an inhibition at 100 µM not below 50% and an activity at 100 µM of 27 ± 5.7%.

`COS(=O)c1ccc(-c2cccc3sc(C(=O)N4CCOCC4)cc23)cc1` (stereo not shown) [Example 64, methyl 4-(2-(morpholine-4-carbonyl)benzo[b]thiophene-4-yl)benzene sulfinate]: in assay [1], the “Death of retinal nerve cell (%)” value was 63.0 ± 17.8%. Moreover, in assay [2], the activity at 100 µM was 83.6 ± 12.7%.

Take `O=C(c1cc2c(SCc3ccc(F)cc3)cccc2s1)N1CCOCC1` [Example 71, (4-(4-fluorobenzylthio)benzo[b]thiophene-2-yl)(morpholino)methanone]: the “Death of retinal nerve cell (%)” value in assay [1] turned out to be 89.1 ± 14.9%. The molecule further displayed an activity at 100 µM in assay [2] of 87 ± 4.2%.

Regarding `CSc1ccc(-c2cccc3sc(C(=O)N4CCOCC4)cc23)cc1` [Example 50, (4-(4-(methylthio)phenyl)benzo[b]thiophene-2-yl)(morpholino)methanone], the “Death of retinal nerve cell (%)” value in assay [1] stood at 57.2 ± 8.1%. In assay [2], this molecule showed an inhibition at 100 µM not below 50% and an activity at 100 µM of 47.5 ± 2.1%.

`COc1ccc(-c2cccc3sc(C(=O)N4CCOCC4)cc23)cn1` [Example 55, (4-(6-methoxypyridine-3-yl)benzo[b]thiophene-2-yl)(morpholino)methanone]: the “Death of retinal nerve cell (%)” value in assay [1] is on record as 47.2 ± 12.4%. Moreover, in assay [2], the inhibition at 100 µM is not below 50% and the activity at 100 µM stood at 43 ± 7.1%.

Consider `Cl.NC1CCN(C(=O)c2cc3c(-c4ccc(F)cc4)cccc3s2)CC1` [Example 37, (4-aminopiperidine-1-yl) (4-(4-fluorophenyl)benzo[b]thiophene-2-yl)methanone hydrochloride], for which the “Death of retinal nerve cell (%)” value in assay [1] stood at 87.0 ± 13.2%. In assay [2], this molecule came in with an inhibition at 100 µM not below 50% and an activity at 100 µM of 25.5 ± 14.8%.

With `O=C(c1cc2c(-c3ccc(F)cc3)cccc2s1)N1CCOC1` [Example 46, (4-(4-fluorophenyl)benzo[b]thiophene-2-yl) (oxazolidine-3-yl)methanone], the “Death of retinal nerve cell (%)” value in assay [1] worked out at 55.4 ± 12.8%. Also, the activity at 100 µM in assay [2] worked out at 11 ± 5.7%.

Regarding `O=C(c1cc2c(-c3ccc(O)cc3)cccc2s1)N1CCOCC1` [Example 44, (4-(4-hydroxyphenyl)benzo[b]thiophene-2-yl)(morpholino)methanone], in assay [1], the “Death of retinal nerve cell (%)” value stood at 81.1 ± 6.5%. Besides, in assay [2], the inhibition at 100 µM is not below 50% and the activity at 100 µM turned out to be 21 ± 17%.

`O=C(c1cc2c(Oc3ccc(F)cc3)cccc2s1)N1CCOCC1` [Example 59, (4-(4-fluorophenoxy)benzo[b]thiophene-2-yl)(morpholino)methanone]: in assay [1], the “Death of retinal nerve cell (%)” value came out at 59.5 ± 14.7%. In assay [2], the inhibition at 100 µM is not below 50% and the activity at 100 µM turned out to be 21 ± 7.1%.

Turning to `O=C(c1cc2c(-c3ccc(-c4ccccc4)cc3)cccc2s1)N1CCOCC1` [Example 31, (4-(biphenyl-4-yl)benzo[b]thiophene-2-yl)(morpholino)methanone], the “Death of retinal nerve cell (%)” value in assay [1] is reported as 81.2 ± 8.3%. Further, the activity at 100 µM in assay [2] stood at 85.2 ± 3.5%.

On to `O=C(c1cc2c(Nc3ccc(F)cc3)cccc2s1)N1CCOCC1` [Example 68, (4-(4-fluorophenylamino)benzo[b]thiophene-2-yl)(morpholino)methanone], for which the “Death of retinal nerve cell (%)” value in assay [1] amounted to 58.3 ± 11.9%. In assay [2], this molecule showed an inhibition at 100 µM not below 50% and an activity at 100 µM of 33.5 ± 12%.

`O=C(c1cc2c(Nc3ccc(F)cc3F)cccc2s1)N1CCOCC1` [Example 58, (4-(2,4-difluorophenylamino)benzo[b]thiophene-2-yl)(morpholino)methanone]: the “Death of retinal nerve cell (%)” value in assay [1] was determined as 89.4 ± 6.4%. The molecule further returned an activity at 100 µM in assay [2] of 78.5 ± 30.4%.

Take `O=C(c1cc2c(CCc3ccc(F)cc3)cccc2s1)N1CCOCC1` [Example 60, (4-(4-fluorophenethyl)benzo[b]thiophene-2-yl)(morpholino)methanone]: the “Death of retinal nerve cell (%)” value in assay [1] was found to be 89.8 ± 10.7%. For the same molecule, in assay [2], the inhibition at 100 µM is not below 50% and the activity at 100 µM is 22 ± 15.6%.

`O=C(c1cc2c(-c3ccc(F)cc3)cncc2s1)N1CCOCC1` [Example 2, (4-(4-fluorophenyl)thieno[2,3-c]pyridine-2-yl)(morpholino)methanone]: in assay [2], the inhibition at 100 µM was not below 50% and the activity at 100 µM is 45 ± 12.7%.

(Values after US10501473B2, “Fused heterocyclic ring compounds and method of treating retinal disease using same” (THE INDUSTRY & ACADEMIC COOPERATION IN CHUNGNAM NATIONAL …, priority 2014, dated 2019).)
